In patent publication US7223737B1, “Method of treating dry eye disorders using glycosides” (Alcon, Inc., priority 2004, dated 2007):

Test system: human primary corneal epithelial cells
Assay: mucin secretion assay using human primary corneal epithelial cells
Type: cell-based
Settings: for Soluble Mucin Units/well: 45-minute incubation at 37° C., conditioned medium; for Total Mucin Units/well: soluble plus membrane-associated (NAC wash) mucin; for Stimulation Index: ratio of Total Mucin Units/well test solution to Control

CCCCCCCCCCCCO[C@@H]1O[C@H](CO)[C@@H](O[C@H]2O[C@H](CO)[C@@H](O)[C@H](O)[C@H]2O)[C@H](O)[C@H]1O [Dodecylmaltoside, n-Dodecyl-beta-D-maltoside]
Soluble Mucin Units/well (0.0001% DDM): 10 ± 0.6 Units/well
Total Mucin Units/well (0.0001% DDM): 18.7 ± 0.2 Units/well
Stimulation Index (0.0001% DDM): 1.23
Soluble Mucin Units/well (0.001% DDM): 24.7 ± 2.7 Units/well
Total Mucin Units/well (0.001% DDM): 32.3 ± 2.9 Units/well
Stimulation Index (0.001% DDM): 2.12
Soluble Mucin Units/well (0.01% DDM): 13.2 ± 0.5 Units/well
Total Mucin Units/well (0.01% DDM): 30.17 ± 0.6 Units/well
Stimulation Index (0.01% DDM): 1.98
